# Test results taken from the supplement of paper PMC11451515.
# Tested on: P12-Ichikawa
# Assay: cell viability relative to DMSO control; higher = less cytotoxic
# Conditions: 48 h
# Procedure, shortened: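 Viability values are per-plate percentages of DMSO wells, with background from cell-free wells. Library compounds in DMSO were pin-dosed, in an 11-point threefold series from 47 μM to 0.79 nM, onto NOMO1 or SEM (500 cells/well) or P12-Ichikawa (1000 cells/well) leukemia cells in 1536-well plates (5 μl). Those cells had been adapted for at least four passages in each medium, and CellTiter-Glo One luminescence was read after 48 h at 37°C.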
# [1] = HPLM + 10% dialyzed FBS, 0.000781 µM
# [2] = HPLM + 10% dialyzed FBS, 0.00234 µM
# [3] = HPLM + 10% dialyzed FBS, 0.00702 µM
# [4] = HPLM + 10% dialyzed FBS, 0.0211 µM
# [5] = HPLM + 10% dialyzed FBS, 0.0632 µM
# [6] = HPLM + 10% dialyzed FBS, 0.19 µM
# [7] = HPLM + 10% dialyzed FBS, 0.569 µM
# [8] = HPLM + 10% dialyzed FBS, 1.71 µM
# [9] = HPLM + 10% dialyzed FBS, 5.12 µM
# [10] = HPLM + 10% dialyzed FBS, 15.4 µM
# [11] = HPLM + 10% dialyzed FBS, 46.1 µM
# [12] = RPMI 5 mM glucose + 10% FBS, 0.000781 µM
# [13] = RPMI 5 mM glucose + 10% FBS, 0.00234 µM
# [14] = RPMI 5 mM glucose + 10% FBS, 0.00702 µM
# [15] = RPMI 5 mM glucose + 10% FBS, 0.0211 µM
# [16] = RPMI 5 mM glucose + 10% FBS, 0.0632 µM
# [17] = RPMI 5 mM glucose + 10% FBS, 0.19 µM
# [18] = RPMI 5 mM glucose + 10% FBS, 0.569 µM
# [19] = RPMI 5 mM glucose + 10% FBS, 1.71 µM
# [20] = RPMI 5 mM glucose + 10% FBS, 5.12 µM
# [21] = RPMI 5 mM glucose + 10% FBS, 15.4 µM
# [22] = RPMI 5 mM glucose + 10% FBS, 46.1 µM
# [23] = RPMI 5 mM glucose + 10% dialyzed FBS, 0.000781 µM
# [24] = RPMI 5 mM glucose + 10% dialyzed FBS, 0.00234 µM
# [25] = RPMI 5 mM glucose + 10% dialyzed FBS, 0.00702 µM
# [26] = RPMI 5 mM glucose + 10% dialyzed FBS, 0.0211 µM
# [27] = RPMI 5 mM glucose + 10% dialyzed FBS, 0.0632 µM
# [28] = RPMI 5 mM glucose + 10% dialyzed FBS, 0.19 µM
# [29] = RPMI 5 mM glucose + 10% dialyzed FBS, 0.569 µM
# [30] = RPMI 5 mM glucose + 10% dialyzed FBS, 1.71 µM
# [31] = RPMI 5 mM glucose + 10% dialyzed FBS, 5.12 µM
# [32] = RPMI 5 mM glucose + 10% dialyzed FBS, 15.4 µM
# [33] = RPMI 5 mM glucose + 10% dialyzed FBS, 46.1 µM
SMILES,cell viability [1],cell viability [2],cell viability [3],cell viability [4],cell viability [5],cell viability [6],cell viability [7],cell viability [8],cell viability [9],cell viability [10],cell viability [11],cell viability [12],cell viability [13],cell viability [14],cell viability [15],cell viability [16],cell viability [17],cell viability [18],cell viability [19],cell viability [20],cell viability [21],cell viability [22],cell viability [23],cell viability [24],cell viability [25],cell viability [26],cell viability [27],cell viability [28],cell viability [29],cell viability [30],cell viability [31],cell viability [32],cell viability [33]
C=C(C)[C@H]1Cc2c(ccc3c2O[C@@H]2COc4cc(OC)c(OC)cc4[C@@H]2C3=O)O1,101%,108%,107%,111%,95.9%,118%,90.6%,76.5%,56.1%,19.7%,17.7%,108%,113%,104%,106%,88.2%,99.5%,73.6%,60.3%,44.3%,17.3%,10.1%,98.6%,106%,110%,107%,102%,95.7%,76.6%,69.3%,59.9%,34%,24.1%
COc1cc2c(cc1OC)CC(=O)N(CCCN(C)C[C@H]1Cc3cc(OC)c(OC)cc31)CC2.Cl,108%,111%,111%,108%,104%,120%,113%,114%,116%,108%,106%,97.5%,106%,115%,113%,109%,111%,110%,102%,109%,104%,106%,104%,104%,114%,115%,113%,111%,102%,97.3%,108%,98.1%,100%
CSCC[C@@H](NC(=O)[C@@H](Cc1ccccc1)NC(=O)CNC(=O)CNC(=O)[C@@H](N)Cc1ccc(O)cc1)C(=O)O,84.4%,96.7%,105%,11%,113%,102%,112%,104%,105%,120%,115%,82.2%,91.9%,101%,12.6%,107%,105%,104%,111%,99.8%,101%,102%,85.1%,88.1%,94.1%,24.3%,101%,98.7%,104%,101%,102%,97.9%,109%
CNc1nccc(-c2cccnc2Oc2cc(C(=O)Nc3cccc(C(F)(F)F)c3)ccc2C)n1,105%,111%,111%,113%,106%,122%,118%,123%,117%,91%,105%,112%,113%,112%,119%,119%,121%,115%,127%,119%,82.8%,103%,105%,101%,104%,114%,112%,110%,112%,120%,111%,90.7%,103%
CC/1=C(/N2[C@H](SC1)[C@H](NC(=O)[C@H](N)\C3=C\C\C=C/C3)C2=O)C(O)=O,96.8%,117%,116%,121%,126%,115%,111%,126%,128%,120%,113%,99.5%,91.8%,110%,116%,103%,120%,117%,119%,120%,124%,122%,111%,112%,116%,112%,118%,118%,118%,117%,125%,133%,125%
Cc1[nH]c2ccccc2c1CCNCc1ccc(/C=C/C(=O)NO)cc1,109%,106%,111%,120%,121%,103%,63.1%,7.05%,6.95%,7.08%,7.23%,106%,120%,108%,107%,128%,109%,48.2%,6.65%,6.49%,8.3%,6.44%,114%,109%,117%,111%,122%,113%,74.4%,6.85%,6.73%,6.95%,7.21%
N=C(NCCCCCCNC(=N)NC(=N)Nc1ccc(Cl)cc1)NC(=N)Nc1ccc(Cl)cc1,89.4%,95.2%,93%,95.7%,92.6%,93.3%,95.2%,101%,92.9%,97.9%,93.8%,83.8%,82.8%,92.1%,90.1%,93.6%,97.6%,91.4%,80.2%,95.1%,81.2%,56.3%,85.4%,85.3%,90.4%,86.9%,94.1%,95.5%,87.5%,88.1%,86%,89.3%,70.3%
Cn1c(CNc2ccc(C(=N)N)cc2)nc2cc(C(=O)N(CCC(=O)O)c3ccccn3)ccc21,96.7%,102%,107%,109%,105%,114%,104%,109%,117%,113%,114%,100%,118%,120%,118%,123%,113%,122%,128%,115%,110%,120%,97.3%,111%,112%,110%,115%,110%,109%,120%,112%,105%,112%
C\C1=C(\C=C(\C#N)C(=O)N1)C2=CC=NC=C2,104%,104%,102%,102%,105%,106%,107%,115%,109%,109%,13.8%,110%,114%,112%,118%,118%,107%,112%,118%,112%,121%,18.4%,94.6%,105%,103%,98.9%,110%,107%,109%,110%,111%,108%,27.9%
O=C(Nc1c(Cl)cncc1Cl)c1ccc(OC(F)F)c(OCC2CC2)c1,101%,112%,118%,105%,114%,113%,111%,115%,117%,108%,104%,103%,116%,111%,115%,122%,121%,119%,106%,110%,106%,106%,96.8%,107%,100%,108%,106%,108%,114%,111%,113%,109%,105%
CC(C)C(=O)Oc1ccc(CO)cc1[C@H](CCN(C(C)C)C(C)C)c1ccccc1,92%,87.1%,89.2%,85.3%,90.1%,99%,75.7%,69.3%,86.2%,76.8%,81.8%,81.1%,82.5%,85.6%,83.4%,83.2%,83.9%,86.1%,84.9%,81.5%,80.7%,83.4%,78.9%,76.3%,82.9%,80.1%,87%,84.2%,79.7%,78.8%,77.1%,73.1%,78.1%
NC(=O)c1ccc(I)c([N+](=O)[O-])c1,117%,126%,124%,115%,130%,139%,133%,134%,132%,128%,125%,–,–,–,–,–,–,–,–,–,–,–,–,–,–,–,–,–,–,–,–,–,–
CCC(C)(C)c1ccc(CC(C)CN2C[C@@H](C)O[C@@H](C)C2)cc1 (stereo partly specified),81.2%,81.5%,82.8%,91.5%,97.3%,84.6%,91.9%,94.9%,89%,87.8%,91.6%,88.9%,81.4%,88.1%,87.8%,89.1%,82.3%,93.9%,85.6%,90.7%,86.2%,88%,72%,76.7%,78.3%,79.6%,81.8%,80.6%,84%,81.8%,85.5%,76.3%,75.8%
Cc1cc2c(F)c(Oc3ncnn4cc(OC[C@@H](C)O)c(C)c34)ccc2[nH]1,115%,105%,102%,106%,111%,106%,97.2%,97.5%,96.9%,73.9%,52%,97.7%,107%,101%,98.1%,101%,109%,104%,99%,98.8%,80.7%,55.8%,102%,100%,97.3%,101%,104%,102%,95.7%,97.8%,90.1%,79.3%,52.3%
OC1CCC(Nc2ncc3nc(Nc4c(F)cc(F)cc4F)n([C@@H]4CCOC4)c3n2)CC1 (stereo partly specified),111%,114%,115%,117%,119%,126%,127%,124%,120%,117%,114%,113%,123%,114%,119%,127%,122%,134%,127%,120%,118%,123%,111%,117%,114%,120%,117%,117%,127%,119%,126%,121%,114%
COc1ccc(-c2nc(N3CCOCC3)c3sc(CN(C)c4ncc(C(=O)NO)cn4)cc3n2)cn1,109%,121%,101%,62.6%,6.62%,7.21%,7.09%,6.69%,6.67%,6.8%,7.92%,102%,127%,111%,57.6%,7.68%,7.7%,7.72%,6.89%,7.19%,7.05%,5.24%,107%,119%,108%,74.2%,10.5%,8.35%,8.38%,8.07%,7.55%,6.64%,5.83%
